We go through one compound from US20110201578A1, “COMPOSITION AND METHODS FOR THE TREATMENT OF PSEUDOFOLLICULITIS BARBAE AND SKIN IRRITATION” (priority 2010, published 2011).

One data set deals with skin. The data set is described as follows: Application to skin, detrimental effects. Format: in vivo. The note with it: used by itself, applied to skin; hours and/or days following application. An excerpt: The low pKa results in an acidic solution having a pH of about 1.9, which damages skin and results in skin peeling in the hours and/or days following application to skin.

Data set [1] in a line: pH of the acidic solution of the substance used by itself. It is filed as physicochemical. Conditions: acetylsalicyclic acid by itself, unbuffered.

In the case of `CC(=O)Oc1ccccc1C(=O)O` [acetylsalicyclic acid], in the data set with skin, the effect on skin entry is given as “acts as a skin peeler”. In addition, the “pH of resulting acidic solution” value in data set [1] was “about 1.9”.
